Results reported in patent US10077261B2, “Imidazolin-5-one derivative useful as FASN inhibitors for the treatment of cancer” (Janssen Pharmaceutica NV, priority 2012, dated 2018).

Biological target: T1, hFASN enzyme (full length) (Homo sapiens, UniProt P49327)
T1 construct: 10 μL hFASN enzyme (full length, 300 ng, purified in house); made in house
Assay: Fatty Acid Synthase (FASN) inhibition scintillation proximity assay
Type: biochemical
Conditions: for inhibition at 10 µM: read-out: Human FASN % inhibition @ 10 μM, 10 μM test compound; for IC50: read-out: Human FASN pIC50 (converted)
In short: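 Scintillation proximity format: in-house full-length enzyme, 300 ng per well, pH 7.5 phosphate/DTT buffer, ³H-acetyl-CoA and malonyl-CoA. Emission counted on LEADseeker at 610 nm at least 24 h after stopping.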

T1 sequence (P49327 whole entry): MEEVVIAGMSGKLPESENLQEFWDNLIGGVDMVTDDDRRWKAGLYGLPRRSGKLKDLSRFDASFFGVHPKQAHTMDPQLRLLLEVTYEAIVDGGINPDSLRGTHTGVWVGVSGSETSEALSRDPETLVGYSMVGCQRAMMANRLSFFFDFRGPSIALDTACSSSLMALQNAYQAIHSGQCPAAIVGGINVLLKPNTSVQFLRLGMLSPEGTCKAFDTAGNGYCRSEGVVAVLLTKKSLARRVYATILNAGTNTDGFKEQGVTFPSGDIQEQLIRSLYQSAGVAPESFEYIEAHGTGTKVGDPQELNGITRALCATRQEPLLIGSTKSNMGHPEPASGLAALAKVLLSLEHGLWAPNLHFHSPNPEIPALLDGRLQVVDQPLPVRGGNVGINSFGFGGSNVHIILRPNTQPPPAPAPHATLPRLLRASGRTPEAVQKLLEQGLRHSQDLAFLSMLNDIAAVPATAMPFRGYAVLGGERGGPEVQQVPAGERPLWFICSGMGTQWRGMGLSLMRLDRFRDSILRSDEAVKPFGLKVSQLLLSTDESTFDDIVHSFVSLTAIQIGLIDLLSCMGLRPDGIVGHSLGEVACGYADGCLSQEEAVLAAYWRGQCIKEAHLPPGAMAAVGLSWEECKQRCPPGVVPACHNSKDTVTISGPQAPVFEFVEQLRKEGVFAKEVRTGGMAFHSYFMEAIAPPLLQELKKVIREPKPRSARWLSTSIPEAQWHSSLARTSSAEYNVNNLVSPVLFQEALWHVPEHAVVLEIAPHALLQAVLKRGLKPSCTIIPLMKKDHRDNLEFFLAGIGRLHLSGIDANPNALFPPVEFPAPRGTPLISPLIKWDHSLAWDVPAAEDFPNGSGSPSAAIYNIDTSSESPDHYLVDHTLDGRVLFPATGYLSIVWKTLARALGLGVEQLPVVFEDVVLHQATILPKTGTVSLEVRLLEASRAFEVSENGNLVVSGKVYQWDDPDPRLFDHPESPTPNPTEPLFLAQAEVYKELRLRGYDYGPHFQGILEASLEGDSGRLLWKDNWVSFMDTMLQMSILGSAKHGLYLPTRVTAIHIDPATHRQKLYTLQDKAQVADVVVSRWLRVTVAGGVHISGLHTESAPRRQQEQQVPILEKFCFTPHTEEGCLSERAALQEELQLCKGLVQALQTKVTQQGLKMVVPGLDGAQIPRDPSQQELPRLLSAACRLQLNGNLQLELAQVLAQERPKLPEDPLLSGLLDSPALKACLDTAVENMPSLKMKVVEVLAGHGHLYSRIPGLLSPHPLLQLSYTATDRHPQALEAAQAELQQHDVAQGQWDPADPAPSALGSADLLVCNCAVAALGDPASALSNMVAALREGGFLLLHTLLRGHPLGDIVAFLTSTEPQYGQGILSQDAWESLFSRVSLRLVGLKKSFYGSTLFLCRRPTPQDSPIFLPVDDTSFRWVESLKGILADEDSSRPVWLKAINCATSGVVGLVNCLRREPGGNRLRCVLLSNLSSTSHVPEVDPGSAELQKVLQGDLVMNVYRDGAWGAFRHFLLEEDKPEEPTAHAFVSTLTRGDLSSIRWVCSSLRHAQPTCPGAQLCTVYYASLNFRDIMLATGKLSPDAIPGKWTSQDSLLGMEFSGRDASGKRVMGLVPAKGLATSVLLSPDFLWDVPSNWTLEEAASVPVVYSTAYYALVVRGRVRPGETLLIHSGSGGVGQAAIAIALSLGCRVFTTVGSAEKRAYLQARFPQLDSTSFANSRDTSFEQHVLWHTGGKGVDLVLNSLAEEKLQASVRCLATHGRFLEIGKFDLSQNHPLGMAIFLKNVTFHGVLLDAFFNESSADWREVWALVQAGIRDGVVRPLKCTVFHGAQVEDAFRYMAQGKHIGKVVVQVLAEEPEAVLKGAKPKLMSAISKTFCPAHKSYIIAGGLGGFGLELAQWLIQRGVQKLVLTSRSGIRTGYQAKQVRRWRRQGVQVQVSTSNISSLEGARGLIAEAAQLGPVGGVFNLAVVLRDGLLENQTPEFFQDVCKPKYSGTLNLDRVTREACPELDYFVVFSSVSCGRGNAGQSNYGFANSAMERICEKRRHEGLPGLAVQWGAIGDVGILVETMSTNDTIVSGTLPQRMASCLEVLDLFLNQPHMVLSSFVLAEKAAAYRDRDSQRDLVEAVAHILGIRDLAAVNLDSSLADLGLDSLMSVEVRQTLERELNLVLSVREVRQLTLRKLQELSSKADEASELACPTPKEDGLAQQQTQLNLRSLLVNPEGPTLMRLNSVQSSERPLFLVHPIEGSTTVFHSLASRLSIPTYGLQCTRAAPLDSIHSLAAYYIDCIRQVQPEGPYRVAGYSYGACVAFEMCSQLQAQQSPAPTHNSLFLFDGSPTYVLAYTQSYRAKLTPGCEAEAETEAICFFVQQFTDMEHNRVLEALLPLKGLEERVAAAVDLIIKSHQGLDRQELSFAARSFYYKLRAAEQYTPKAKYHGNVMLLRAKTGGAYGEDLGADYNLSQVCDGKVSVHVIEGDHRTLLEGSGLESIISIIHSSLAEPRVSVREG

CC(C)N1CCC2(CC1)N=C(c1ccc(-c3ccc(-c4cnn(C)c4)cc3)cc1)N(CC1CN(C(=O)C3CC3)C1)C2=O [compound 771, 3-{[1-(Cyclopropylcarbonyl)azetidin-3-yl]methyl}-8-(1-methylethyl)-2-[4′-(1-methyl-1H-pyrazol-4-yl)biphenyl-4-yl]-1,3,8-triazaspiro[4.5]dec-1-en-4-one]
inhibition at 10 µM: 44%
IC50: 7.59 µM

Cn1cc(-c2ccc(-c3ccc(C4=NC5(CCN(CCO)CC5)C(=O)N4CC4CN(C(=O)C5CC5)C4)cc3)cc2)cn1 [compound 772, 3-{[1-(Cyclopropylcarbonyl)azetidin-3-yl]methyl}-8-(2-hydroxyethyl)-2-[4′-(1-methyl-1H-pyrazol-4-yl)biphenyl-4-yl]-1,3,8-triazaspiro[4.5]dec-1-en-4-one]
inhibition at 10 µM: 64%
IC50: 3.98 µM

Cc1cc(-c2ccc3c(cnn3C)c2)ccc1C1=NC2(CC2)C(=O)N1CC1CN(C(=O)C2(O)CCC2)C1 [compound 796, 6-((1-(1-hydroxycyclobutanecarbonyl)azetidin-3-yl)methyl)-5-(2-methyl-4-(1-methyl-1H-indazol-5-yl)phenyl)-4,6-diazaspiro[2.4]hept-4-en-7-one]
inhibition at 10 µM: 19%
IC50: > 10 µM

CC(C)(O)c1ccc(-c2ccc(C3=NC4(CC4)C(=O)N3CC3CN(C(=O)C4CC4)C3)cc2)cn1 [compound 797, 6-((1-(cyclopropanecarbonyl)azetidin-3-yl)methyl)-5-(4-(6-(2-hydroxypropan-2-yl)pyridin-3-yl)phenyl)-4,6-diazaspiro[2.4]hept-4-en-7-one]
inhibition at 10 µM: 1%
IC50: > 10 µM

O=C(C1CC1)N1CC(CN2C(=O)C3(CC3)N=C2c2ccc(-c3ccc(C4CC4)nc3)cc2)C1 [compound 798, 6-((1-(cyclopropanecarbonyl)azetidin-3-yl)methyl)-5-(4-(6-cyclopropylpyridin-3-yl)phenyl)-4,6-diazaspiro[2.4]hept-4-en-7-one]
inhibition at 10 µM: 30%
IC50: > 10 µM

O=C(C1CC1)N1CC(CN2C(=O)C3(CC3)N=C2c2ccc(-c3cnc4ncccc4c3)cc2)C1 [compound 799, 5-(4-(1,8-baphthyridin-3-yl)phenyl)-6-((1-(cyclopropanecarbonyl)azetidin-3-yl)methyl)-4,6-diazaspiro[2.4]hept-4-en-7-one]
inhibition at 10 µM: 39%
IC50: > 10 µM

N#CC1(c2ccc(-c3ccc(C4=NC5(CC5)C(=O)N4CC4CN(C(=O)C5CC5)C4)cc3)cn2)CC1 [compound 800, 1-(5-(4-(6-((1-(cyclopropanecarbonyl)azetidin-3-yl)methyl)-7-oxo-4,6-diazaspiro[2.4]hept-4-en-5-yl)phenyl)pyridin-2-yl)cyclopropanecarbonitrile]
inhibition at 10 µM: 16%
IC50: > 10 µM

O=C(C1CC1)N1CC(CN2C(=O)C3(CC3)N=C2c2ccc(-c3cnc4cccnc4c3)cc2)C1 [compound 801, 5-(4-(1,5-naphthyridin-3-yl)phenyl)-6-((1-(cyclopropanecarbonyl)azetidin-3-yl)methyl),4-6diazaspiro[2.4]hept-4-en-7-one]
inhibition at 10 µM: 6%
IC50: > 10 µM

O=C(C1CC1)N1CC[C@@H](CN2C(=O)C3(CC3)N=C2c2ccc(-c3cncc(Cl)c3)cc2)C1 [compound 802, (R)-5-(4-(5-chlorppyridin-3-yl)phenyl)-6-((1-(cyclopropanecarbonyl)pyrrolidin-3-yl)methyl)-4,6-diazaspiro[2.4]hept-4-en-7-one]
inhibition at 10 µM: 24%
IC50: > 10 µM

O=C(C1CC1)N1CC(CN2C(=O)C3(CC3)N=C2c2ccc(-c3ccc4c(cnn4C4CC4)c3)cc2)C1 [compound 803, 6-((1-(cyclopropanecarbonyl)azetidin-3-yl)methyl)-5-(4-(1-cyclopropyl-1H-indazol-5-yl)phenyl)-4,6-diazaspiro[2.4]hept-4-en-7-one]
inhibition at 10 µM: 48%
IC50: > 10 µM

O=C(C1CC1)N1CC(CN2C(=O)C3(CC3)N=C2c2ccc(-c3ccc4c(cnn4CC4CC4)c3)cc2)C1 [compound 804, 6-((1-(cyclopropanecarbonyl)azetidin-3-yl)methyl)-5-(4-(1-(cyclopropylmethyl)-1H-indazol-5-yl)phenyl)-4,6-diazaspiro[2.4]hept-4-en-7-one]
inhibition at 10 µM: 41%
IC50: > 10 µM

Cc1cc(-c2ccc3c(cnn3C)c2)ccc1C1=NC2(CC2)C(=O)N1CC1CN(C(=O)c2cccnc2)C1 [compound 805, 5-(2-methyl-4-(1-methyl-1H-indazol-5-yl)phenyl)-6-((1-nicotinoylazetidin-3-yl)methyl)-4,6-diazaspiro[2.4]hept-4-en-7-one]
inhibition at 10 µM: 14%
IC50: > 10 µM

O=C(C1CC1)N1CC(CN2C(=O)C3(CC3)N=C2c2ccc(-c3ccc(N4CCOCC4)nc3)cc2)C1 [compound 806, 6-((1-(cyclopropanecarbonyl)azetidin-3-yl)methyl)-5-(4-(6-morpholinopyridin-3-yl)phenyl)-4,6-diazaspiro[2.4]hept-4-en-7-one]
inhibition at 10 µM: -6%
IC50: > 10 µM

CC(C)n1ncc2cc(-c3ccc(C4=NC5(CC5)C(=O)N4CC4CN(C(=O)C5CC5)C4)cc3)ccc21 [compound 807, 6-((1-(cyclopropanecarbonyl)azetidin-3-yl)methyl)-5-(4-(1-isopropyl-1H-indazol-5-yl)phenyl)-4,6-diazaspiro[2.4]hept-4-en-7-one]
inhibition at 10 µM: 7%
IC50: > 10 µM

CC(C)n1cc2cc(-c3ccc(C4=NC5(CC5)C(=O)N4CC4CN(C(=O)C5CC5)C4)cc3)ccc2n1 [compound 808, 6-((1-(cyclopropanecarbonyl)azetidin-3-yl)methyl)-5-(4-(2-isopropyl-2H-indazol-5-yl)phenyl)-4,6-diazaspiro[2.4]hept-4-en-7-one]
inhibition at 10 µM: 31%
IC50: > 10 µM

O=C1CCc2ccc(-c3ccc(C4=NC5(CC5)C(=O)N4C[C@@H]4CCN(C(=O)C5CC5)C4)cc3)cc2N1 [compound 809, (R)-7-(4-(6-((1-(cyclopropanecarbonyl)pyrrolidin-3-yl)methyl)-7-oxo-4,6-diazaspiro[2.4]hept-4-en-5-yl)phenyl)-3,4-dihydroquinolin-2(1H)-one]
inhibition at 10 µM: 29%
IC50: > 10 µM

CC(C)n1cc2cc(-c3ccc(C4=NC5(CC5)C(=O)N4C[C@@H]4CCN(C(=O)C5CC5)C4)cc3)ccc2n1 [compound 811, (R)-6-((1-(cyclopropanecarbonyl)pyrrolidin-3-yl)methyl)-5-(4-(2-isopropyl-2H-indazol-5-yl)phenyl)-4,6-diazaspiro[2.4]hept-4-en-7-one]
inhibition at 10 µM: 35%
IC50: > 10 µM

Cc1ccc(-c2ccc(-c3ccc(C4=NC5(CC5)C(=O)N4C[C@H]4CCCN(C(=O)C5CC5)C4)cc3)cc2)cc1 [compound 812, (S)-6-((1-(cyclopropanecarbonyl)piperidin-3-yl)methyl)-5-(4″-methyl[1,1′:4′,1″- terphenyl]-4-yl)-4,6-diazaspiro[2.4]hept-4-en-7-one]
inhibition at 10 µM: 5%
IC50: > 10 µM

O=C(C1CC1)N1CCC[C@H](CN2C(=O)C3(CC3)N=C2c2ccc(-c3ccc(-c4cccc(Cl)c4)cc3)cc2)C1 [compound 813, (S)-5-(3″-chloro-[1,1′:4′,1″-tertphenyl]-4-yl)-6-((1-(cyclopropanecarbonyl)piperidin-3-yl)methyl)-4,6-diazaspiro[2.4]hept-4-en-7-one]
inhibition at 10 µM: 2%
IC50: > 10 µM

Cc1cc(C2=NC3(CC3)C(=O)N2CC2CN(C(=O)C3CC3)C2)ccc1-c1ccc2oc(C)c(C)c2c1 [compound 814, 6-((1-(cyclopropanecarbonyl)azetidin-3-yl)methyl)-5-(4-(2,3-dimethylbenzofuran-5-yl)-3-methylphenyl)-4,6-diazaspiro[2.4]hept-4-en-7-one]
inhibition at 10 µM: 39%
IC50: > 10 µM

Cn1cc(-c2ccc(-c3ccc(C4=NC5(CC5)C(=O)N4C[C@H]4CCCN(C(=O)C5CC5)C4)cc3)cc2)cn1 [compound 815, (S)-6-((1-(cyclopropanecarbonyl)piperidin-3-yl)methyl)-5-(4′-(1-methyl-1H-pyrazol-4-yl)-[1,1′-biphenyl]-4-yl)-4,6-diazaspiro[2.4]hept-4-en-7-one]
inhibition at 10 µM: 1%
IC50: > 10 µM

O=C(C1CC1)N1CCC[C@H](CN2C(=O)C3(CC3)N=C2c2ccc(-c3ccc4[nH]ncc4c3)cc2)C1 [compound 816, (S)-5-(4-(1H-indazol-5-yl)phenyl)-6-((1-(cyclopropanecarbonyl)piperidin-3-yl)methyl)-4,6-diazaspiro[2.4]hept-4-en-7-one]
inhibition at 10 µM: 4%
IC50: > 10 µM

O=C(C1CC1)N1CCC[C@H](CN2C(=O)C3(CC3)N=C2c2ccc(-c3ccc4sccc4c3)cc2)C1 [compound 817, (S)-5-(4-(benzo[b]thiophen-5-yl)phenyl)-6-((1-(cyclopropanecarbonyl)piperidin-3-yl)methyl)-4,6-diazaspiro[2.4]hept-4-en-7-one]
inhibition at 10 µM: 1%
IC50: > 10 µM

O=C(C1CC1)N1CCC[C@H](CN2C(=O)C3(CC3)N=C2c2ccc(-c3ccc4occc4c3)cc2)C1 [compound 818, (S)-5-(4-(benzofuran-5-yl)phenyl)-6-((1-(cyclopropanecarbonyl)piperidin-3-yl)methyl)-4,6-diazaspiro[2.4]hept-4-en-7-one]
inhibition at 10 µM: 2%
IC50: > 10 µM

Cn1ncc2cc(-c3ccc(C4=NC5(CC5)C(=O)N4C[C@H]4CCCN(C(=O)C5CC5)C4)cc3)ccc21 [compound 819, (S)-6-((1-(cyclopropanecarbonyl)piperidin-3-yl)methyl)-5-(4-(1-methyl-1H-indazol-5-yl)phenyl)-4,6-diazaspiro[2.4]hept-4-en-7-one]
inhibition at 10 µM: 10%
